Results from patent US20160270405A1, “Synergistic Compositions Comprising a Bacillus Subtilis Strain and a Pesticide” (BASF CORPORATION, priority 2013, published 2016).

What was measured:
corn = assay: Improvement of plant growth in corn: seed treatment, two week growth in seed germination pouches; type: in vivo; settings: pyraclostrobin 1 g a.i./100 kg seed and/or FB17 1 × 10^6 CFU per seed, two weeks growth
Method: (§1) Pyraclostrobin was applied to corn or wheat seeds as the commercial, liquid seed treatment formulation Stamina® (200 g per litre a.i., BASF Corporation, Research Triangle Park, North Carlolina), whereas Bacillus subtilis FB17 was applied to corn seeds as a SC formulation (about 2×10^10 CFU ml^−1).
Corn or wheat seeds were treated at the BASF Seed Solutions Technology Center (SSTC) in Ames, Iowa. Pyraclostrobin and Bacillus subtilis UD1022 were applied to maize seeds as water-based slurries by using methods consistent with commercial seed treatment applications in a laboratory-scale batch treater. Briefly, 500 g of corn seeds were added to the drum of a laboratory-scale batch treater and 6 ml of prepared slurry (with appropriate amount of pyraclostrobin, Bacillus subtilis FB17, or combination thereof) was applied to the seed as the drum rotated. For 500 g of wheat seeds, 8 ml of slurry was used. Seed was rotated in the drum for 30 seconds following application of the slurry to assure uniform and complete coverage to the seed surface.
Treated seeds were placed in seed germination pouches (Mega International, St. Paul, Minn.) and 20 ml of fertilizer solution that provided 50 ppm nitrogen, 7.5 ppm phosphorus, and 37.5 ppm potassium (derived from calcium nitrate, potassium nitrate, phosphoric acid and adjusted to pH 6.5) was added to each pouch. Seed germination pouches were placed in 25° C. growth chambers with a 16 h photoperiod. Five ml of fertilizer solution was added to seed germination pouches at two day intervals to replenish water lost to evapotranspiration.
Corn or wheat plants were allowed to grow for two weeks. At the conclusion of the two week growth period, plant height and shoot and root dry weights were determined. Plant height was measured in centimeters. Shoot and root tissues were separated and dried in an oven at 68° C. for three days. Shoot and root dry weights were measured in mg using an analytical balance.
(§2) Treatments were arranged in a completely randomized design with ten replications per treatment. Shoot height, shoot dry weight and root dry weight data were expressed as difference (%) relative to the not-treated control to facilitate application of Colby's formula (Colby, 1967) to calculate expected difference (EColby).
EColby=PA+PB−PA*PB/100 • EColby expected difference, expressed in % difference from the not-treated control, when using the mixture of the active compounds A and B at the concentrations a and b • PA difference, expressed as % difference from the not-treated control, when using the active compound A at the concentration a • PB difference, expressed in % difference from the not-treated control, when using the active compound B at the concentration b.

wheat = assay: Improvement of plant growth in wheat: seed treatment, two week growth in seed germination pouches; type: in vivo; settings: pyraclostrobin 1 g a.i./100 kg seed and/or FB17 1 × 10^6 CFU per seed, two weeks growth
Method: as §1
Corn or wheat seeds were treated at the BASF Seed Solutions Technology Center (SSTC) in Ames, Iowa. Pyraclostrobin and Bacillus subtilis UD1022 were applied to maize seeds as water-based slurries by using methods consistent with commercial seed treatment applications in a laboratory-scale batch treater. […]
Corn or wheat plants were allowed to grow for two weeks. At the conclusion of the two week growth period, plant height and shoot and root dry weights were determined. Plant height was measured in centimeters. […] Shoot and root dry weights were measured in mg using an analytical balance.
as §2, with “(EColby). […]” for “(EColby).”

In the case of `COC(=O)N(OC)c1ccccc1COc1ccn(-c2ccc(Cl)cc2)n1` [Pyraclostrobin, pyraclostrobin], the “Difference (shoot dry weight) relative to not-treated control” value (corn) is reported as 1.1%, the “Difference (shoot height) relative to not-treated control” value (corn) is reported as 3.5% and the Shoot dry weight (corn; dried at 68° C. for three days) is reported as 85.0 mg. The Shoot height (corn; mean of 10 measurements) was 29.7 cm, the “Difference (root dry weight) relative to not-treated control” value (wheat) was 17.4% and the Root dry weight (wheat; dried at 68° C. for three days) was 10.1 mg.
